Patent US5496847A, “Aminomethyl-benzodioxane and benzopyran serotonergic agents” (Bristol-Myers Squibb Co., priority 1995, dated 1996)
Counter-ions that a name gives are not always drawn.

Molecular target: T1, 5-HT1A receptor
T1 construct: from tissue
Assay: In vitro binding to the 5-HT1A receptor (method of Peroutka, Brain Research 344, 167 (1985), minor modifications)
Settings: in vitro binding to 5-HT1A receptor; class symbols
Method: In vitro IC50 test values for binding to the 5-HT1A receptor were determined for representative compounds of Formula I by the method of S. J. Peroutka, Brain Research 344, 167 (1985); with only minor modifications. Test IC50 values lower than 100 nM are considered to reflect activity at the 5-HT1A receptor.

T1 sequence (F6Q2H9 1-422): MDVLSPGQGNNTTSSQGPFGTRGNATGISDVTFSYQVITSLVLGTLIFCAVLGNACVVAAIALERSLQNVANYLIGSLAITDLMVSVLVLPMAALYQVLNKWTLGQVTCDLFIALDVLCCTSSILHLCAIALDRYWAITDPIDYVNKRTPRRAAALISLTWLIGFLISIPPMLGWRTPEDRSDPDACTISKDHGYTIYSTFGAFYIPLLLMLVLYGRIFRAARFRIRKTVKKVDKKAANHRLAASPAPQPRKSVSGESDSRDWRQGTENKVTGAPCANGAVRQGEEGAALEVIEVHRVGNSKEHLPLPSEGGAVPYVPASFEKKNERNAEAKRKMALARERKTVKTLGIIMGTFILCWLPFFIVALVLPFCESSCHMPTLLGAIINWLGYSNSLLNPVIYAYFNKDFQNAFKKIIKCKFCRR

| SMILES | IC50 [nM] |
| --- | --- |
| CCN(CC1COc2ccccc2O1)C1CCC(O)(c2ccc3c(c2)OCO3)CC1 (mixture of isomers) [Example 7, (±)-Cis-N-Ethyl-N,[4-(1,3-benzodioxol-5-yl)-4-hydroxycyclohexyl]-1,4-benzodioxane-2-methanamine fumarate] | 5 to 25 |
| COC1(c2ccc3c(c2)OCO3)CCC(N(C)CC2COc3ccccc3O2)CC1 (mixture of isomers) [Example 8, (±) -Cis-N-Methyl-N-[4-(1,3-benzodioxol-5-yl)-4-methoxycyclohexyl]-1,4,-benzodioxane-2-methanamine fumarate] | 5 to 25 |
| COC1(c2ccc3c(c2)OCCO3)CCC(NCC2COc3ccccc3O2)CC1 (racemic) [Example 4, (±)-Cis-N-[4-(1,4-benzodioxan-6-yl)-4-methoxycyclohexyl]-1,4-benzodioxane-2-methanamine hemifumarate] | 1 to 5 |
| CCOC1(c2ccc3c(c2)OCO3)CCC(NCC2COc3ccccc3O2)CC1 (racemic) [Example 5, (±)-Cis-N-[4-(1,3-benzodioxol-5-yl)-4-ethoxycyclohexyl]-1,4-benzodioxane-2-methanamine fumarate] | 1 to 5 |
| COC1(c2ccc3c(c2)OCO3)CCC(NCC2COc3ccccc3O2)CC1 (racemic) [Example 6, (±)-Cis-N-[4-(1,3-Benzodioxol-5-yl)-4-methoxycyclohexyl]-1,4-benzodioxane-2-methanamine hemifumarate] | 1 to 5 |
| COC1(c2ccc3c(c2)OCO3)CCC(NCC2COc3ccccc3O2)CC1 (racemic) [Example 10, (±)-Trans-N-[4-(1,3-benzodioxol-5-yl)-4-methoxycyclohexyl]-1,4-benzodioxane-2-methanamine hemifumarate] | 5 to 25 |
| OC1(c2ccc3c(c2)OCO3)CCC(NCC2CCc3ccccc3O2)CC1 (racemic) [Example 11, (±)-Cis-4-[[(3,4-dihydro-2H-1-benzopyran-2-yl)methyl]amino]-1-(1,3-benzodioxol-5-yl)cyclohexanol] | < 1 |
| OC1(c2ccc(F)c(F)c2)CCC(NCC2COc3ccccc3O2)CC1 (racemic) [Example 13, (±)-Cis-4-[(1,4-Benzodioxan-2-yl)methylamino]-1-(3,4-difluorophenyl)cyclohexanol] | < 1 |
| COC1(c2ccc3c(c2)OCO3)CCC(NCC2COc3ccccc3O2)CC1 (single isomer, unassigned; (-)) [Example 9] | < 1 |
| OC1(c2ccc3c(c2)OCO3)CCC(NCC2COc3ccccc3O2)CC1 (stereo not drawn) [Example 1, Cis-4-[(2S-1,4-Benzodioxan-2-yl)methylamino]-1-(1,3-benzodioxol-5-yl)cyclohexanol] | < 1 |
| COC1(c2ccc3c(c2)OCO3)CCC(NCC2COc3ccccc3O2)CC1 (stereo not drawn) [Example 2, Cis-N-[4-(1,3-Benzodioxol-5-yl)-4-methoxycyclohexyl]-2S-1,4-benzodioxane-2-methanamine hemifumarate] | < 1 |
| C1=C(c2ccc3c(c2)OCO3)CCC(NC[C@H]2COc3ccccc3O2)C1 (stereo partly drawn) [Example 12, N-[4-(1,3-Benzodioxol-5-yl)-3-cyclohexen-1-yl]-2S-1,4-benzodioxane-2-methanamine] | 5 to 25 |
